Measurements as given in US6803466B1, “HIV/FIV protease inhibitors having a small P3 residue” (The Scripps Research Institute, priority 1997, dated 2004).

What was measured:
[1] = target: T1, HIV PR V82F (Human immunodeficiency virus type 1 group M subtype B, UniProt P03366, V582F); settings: licensed drugs, literature; cited from earlier work
T1 construct: drug-resistant mutant HIV PRs G48V and V82F

[2] = target: T2, HIV PR (Human immunodeficiency virus type 1 group M subtype B, UniProt P03366, Q507K); experiment: Inhibition of HIV PR (Ki, IC50), fluorogenic substrate; format: biochemical
T2 construct: initiator Met plus the eight Pol residues preceding PR (N-terminal extension of the expressed precursor) (N); made in house; host or cells: E. coli BL21.DE3, pLysS
Procedure: The solution was mixed and incubated over 5 minutes during which time the rate of substrate cleavage was monitored by continuously recording the change in fluorescence of the assay solution. An excitation filter of 325 nm, and an emission filter of 420 nm were used.
Determination of Ki for HIV protease was performed similarly with the following modifications. The substrate concentrations used were 57, 43, 28 and 14 μM. All other concentrations were as above. The curve fit for the data was determined and the subsequent Ki derived using a computer program based on the equation of Morrison et. al. BioChim. Biophys. ACTA 1969,185, 269, for tight binding inhibitors.
(§1) Kinetic determinations for both HIV PR and FIV PRs were performed at 37° C. at pH 5.25 in duplicate using F-2000 fluorescence spectrophotometer (Hitachi).
For HIV PR, the KM and Vmax values for the fluorogenic peptide substrate 2-aminobenzoyl (Abz)-Thr-Ile-Nle-Phe-(p-NO2)-Gln-Arg-NH2 (SEQ ID NO: 3) Toth et al Int. J. Peptide Res. 36, 544-550 were determined by measuring the initial rate of hydrolysis at different substrate concentrations (5.0, 7.5, 10, 20, 35, 50, 100, and 200 μM) by monitoring the change in fluorescence at an excitation wavelength of 325 nm and an emission wavelength of 420 nm, and fitting the obtained data to the Michaelis-Menten equation using the Grafit program (version 3.0, Erithacus Software Ltd., UK). Assays were run in 0.1 M MES buffer, containing 5% (v/v) glycerol, and 5% (v/v) DMSO (200 μl final volume). The enzyme concentration (30 μg/ml) which gave ideal progress curve was used for assays, but the dimeric active HIV PR concentration was not accurately determined. […] The curve fit the data was determined, and the subsequent Ki was derived using the Grafit program.

[3] = target: T3, FIV PR (Feline immunodeficiency virus, UniProt P16088, C122K/G43I/N93T); experiment: Inhibition of FIV PR (Ki, IC50); format: biochemical
T3 construct: made in house; host or cells: E. coli BL21(DE3)
Procedure: The solution was mixed and incubated for 10 minutes at 37° C. and the reaction quenched by addition of 8M guanidine HCl solution containing 0.2 M sodium acetate at pH 4.2 (100 μL). The cleavage products and substrate were separated by reverse phase HPLC. Absorbance was measured at 215 nm, peak areas were determined and percent conversion to product was calculated using relative peak areas. […] IC50 was determined as the inhibitor concentration at 50% inhibition. […] ([S]=substrate concentration in nmol). The data used was generated similarly to that for Ki with the following modifications. The substrate concentrations used were 560, 448, 336, 224, 111 and 56 μM, in the absence of inhibitor.
as §1
(§2) For FIV PRs, the kinetic data were determined under the similar reaction conditions as for HIV PR.

[4] = target: T3, FIV PR; settings: relative to HIV PR; Slee et al.; cited from earlier work
[5] = target: T4, HIV PR G48V (Human immunodeficiency virus type 1 group M subtype B, UniProt P03366, G548V); settings: licensed drugs, literature; cited from earlier work
T4 construct: drug-resistant mutant HIV PRs G48V and V82F

[6] = tested on: FIV-PPR in feline T-cells (104-C1); experiment: Ex vivo inhibitor analysis against FIV, pelletable reverse transcriptase in culture supernatant; format: cell-based, feline immunodeficiency virus
Procedure: For FIV, the assays were performed in FIV-infected feline T-cells which were cultured in the presence of compound 1200 at different concentrations over the course of 1 month. Each data in FIG. 14 represents the amount of pelletable FIV reverse transcriptase in the culture supernatant. […] After one month, the drug-treated cultures were split and replated with and without compound 1200.
The lymphocytic cell line 104-C1 (provided by C. Grant) was used as the target for infection. Cells were cultured in RPMI-1640 media supplemented with 10% FBS, 200 μM L-Glutamine, 1×MEM-Vitamins, 100 μM Sodium Pyruvate, 1×Non-Essential Amino Acids, 5.5×10−5M b-ME, 50 μg/ml Gentamicin, 50 U/ml human recombinant Interleukin-2 (provided by Hoffmann-LaRoche) and 7.5 μg/ml Concanavalin-A. For inhibitor assessment, 5×10^6 cells were infected with FIV-PPR (4×105 RT units) in 1 mL culture for 2 hr at 37° C. […] The cells were then washed with Hanks-buffered saline solution (HBSS) and resuspended in 10 ml of complete medium. The compound 1200 (10 mg/mL in DMSO) was then added to final concentrations of 0.1, 0.5, 1, and 5 μg/ml in duplicate. The cells were then incubated at 37° C. The culture supernatants were monitored for the presence of pelletable reverse transcriptase activity at weekly intervals, as follows. Cell-free culture supernatants (4 ml) were centrifuged at 60K for 30 min and the pellets were resuspended in 100 μl of lysis buffer containing 40 mM TrisHCl (pH 8.1), 360 mM NaCl, 20 mM DTT and 0.2% NP40. Twenty five μl of lysate was added to 25 μl of a mixture containing polyrA-pdT (Pharmacia, Piscataway, N.J.), MgCl2, and 3H-labeled deoxythymidine 5′-triphosphate (DuPont NEN, Boston, Mass.), and incubated for 1 hr at 37° C. The mixture was spotted on DE81 paper, air-dried, fixed in 0.1 M sodium pyrophosphate, washed three times in 0.3 M ammonium formate, and an additional time in 95% ethanol. The paper was then dried and counted on a scintillation counter.
Cells were split 1:5 after the second, third, and fourth time points and fresh inhibitor was added at the appropriate concentration at each of these intervals. The data were expressed as values +/−standard deviation of the mean.

[7] = tested on: mutant FIV PRs (FIV(V59I), FIV(Q99V)); experiment: Inhibition of mutant FIV PRs; format: biochemical, feline immunodeficiency virus
Procedure: The inhibitory effects of each inhibitor were evaluated against HIV and FIV PRs along with two mutant FIV PRs that contain amino acid substitutions corresponding to those in HIV PR at homologous sites.
as §2
Mutant FIV PRs were prepared that contained substitutions of HIV residues noted to be associated with drug resistance in HIV (16) at equivalent sites in the three dimensional structure.

Structure (SMILES) | higher IC50 / less sensitive, V82F mutant compared to wild-type HIV PR [1] [fold] | Ki [2] [nM] | Ki [3] [nM] | inhibition of FIV PR (in words) [3] | higher IC50 / decreased potency, G48V mutant compared to wild-type HIV PR [5] [fold] | other results
CC(C)(C)NC(=O)[C@@H]1CN(Cc2cccnc2)CCN1C[C@@H](O)C[C@@H](Cc1ccccc1)C(=O)N[C@H]1c2ccccc2C[C@H]1O [MK-639] | 7 |  |  |  |  | 
CC(C)(C)NC(=O)[C@@H]1C[C@@H]2CCCC[C@@H]2CN1C[C@@H](O)[C@H](Cc1ccccc1)NC(=O)[C@H](CC(N)=O)NC(=O)c1ccc2ccccc2n1 [RO31-8959, reference compound] |  | 1.6 | 76000 | total loss of potency | 27 | less efficient inhibitor of FIV PR, factor [4]: ≥ 100
CC(C)[C@H](NC(=O)[C@H](CO)NC(=O)OCc1ccccc1)C(=O)N[C@@H](Cc1ccccc1)[C@@H](O)[C@H](O)[C@H](Cc1ccccc1)NC(=O)[C@@H](NC(=O)[C@H](CO)NC(=O)OCc1ccccc1)C(C)C [Compound 12] |  | 0.58 | 32 | effective inhibitors |  | inhibition of HIV PR (in words) [2]: effective inhibitors; higher potency against HIV PR compared to 1b ([2]; versus 1b): 3 fold; prevention of FIV infection in tissue culture (in words) [6]: not as effective as 1b
CC(C)[C@H](NC(=O)[C@H](Cc1ccccc1)NC(=O)OCc1ccccc1)C(=O)N[C@@H](Cc1ccccc1)[C@@H](O)[C@H](O)[C@H](Cc1ccccc1)NC(=O)[C@@H](NC(=O)[C@H](Cc1ccccc1)NC(=O)OCc1ccccc1)C(C)C [Compound 10b] |  |  | 7000 |  |  | lower potency than 1b against FIV PR ([3]; versus 1b): 170 fold; lower potency compared to 1100, FIV PR ([3]; versus 1100): 45 fold; Ki higher / potency lower than 1200, FIV PR ([3]; versus 1200): 170 fold; activity against mutant FIV PRs compared to wild type FIV PR (in words) [7]: very similar activities
CC(C)c1nc(CN(C)C(=O)N[C@H](C(=O)N[C@@H](Cc2ccccc2)C[C@H](O)[C@H](Cc2ccccc2)NC(=O)OCc2cncs2)C(C)C)cs1 [ABT-538] | 90 |  |  |  | 17 | 
Cc1c(O)cccc1C(=O)N[C@@H](CSc1ccccc1)[C@H](O)CN1C[C@H]2CCCC[C@H]2C[C@H]1C(=O)NC(C)(C)C [AG-1343] | 15 |  |  |  |  | 
